According to ChEMBL document CHEMBL3045111, “Synthesis and herbicidal activities of novel 3-(substituted benzyloxy or phenoxy)-6-methyl-4-(3-trifluoromethylphenyl)pyridazine derivatives” (2012):
Active and inactive are the calls of the source. The rule behind the calls is not given here.

Experiments:
[1] = system: Brassica rapa subsp. oleifera; assay: Post-emergence herbicidal activity against one-leaf stage Brassica rapa subsp. oleifera under greenhouse condition assessed as complete bleaching of leaves at 600 g /ha measured after 24 days by spray method; format: functional, organism-based
[2] = system: Brassica rapa subsp. oleifera; assay: Post-emergence herbicidal activity against one-leaf stage Brassica rapa subsp. oleifera under greenhouse condition at 75 g /ha measured after 24 days by spray method; format: functional; conditions: 576 h, read-out: GI
[3] = system: Brassica rapa subsp. oleifera; assay: Post-emergence herbicidal activity against one-leaf stage Brassica rapa subsp. oleifera under greenhouse condition at 150 g /ha measured after 24 days by spray method; format: functional; conditions: 576 h, read-out: GI
[4] = system: Brassica rapa subsp. oleifera; assay: Post-emergence herbicidal activity against one-leaf stage Brassica rapa subsp. oleifera under greenhouse condition at 300 g /ha measured after 24 days by spray method; format: functional; conditions: 576 h, read-out: GI
[5] = system: Brassica rapa subsp. oleifera; assay: Post-emergence herbicidal activity against one-leaf stage Brassica rapa subsp. oleifera under greenhouse condition at 600 g /ha measured after 24 days by spray method; format: functional; conditions: 576 h, read-out: GI
Digitaria [6] = assay: Post-emergence herbicidal activity against one-leaf stage of Digitaria adscendens under greenhouse condition at 750 g /ha measured after 24 days by spray method; format: functional; conditions: in Digitaria adscendens, 576 h, read-out: GI
Echinochloa crus-galli [7] = assay: Post-emergence herbicidal activity against one-leaf stage of Echinochloa crus-galli (barnyard grass) under greenhouse condition at 750 g /ha measured after 24 days by spray method; format: functional; conditions: 576 h, read-out: GI
Amaranthus retroflexus [8] = assay: Post-emergence herbicidal activity against one-leaf stage of Amaranthus retroflexus under greenhouse condition at 750 g /ha measured after 24 days by spray method; format: functional; conditions: 576 h, read-out: GI
[9] = system: Brassica rapa subsp. oleifera; assay: Post-emergence herbicidal activity against one-leaf stage Brassica rapa subsp. oleifera under greenhouse condition at 750 g /ha measured after 24 days by spray method; format: functional; conditions: 576 h, read-out: GI
Digitaria [10] = assay: Pre-emergence herbicidal activity against Digitaria adscendens under greenhouse condition at 750 g /ha measured after 24 days by spray method; format: functional; conditions: in Digitaria adscendens, 576 h, read-out: GI
Echinochloa crus-galli [11] = assay: Pre-emergence herbicidal activity against Echinochloa crus-galli (barnyard grass) under greenhouse condition at 750 g /ha measured after 24 days by spray method; format: functional; conditions: 576 h, read-out: GI
Amaranthus retroflexus [12] = assay: Pre-emergence herbicidal activity against Amaranthus retroflexus under greenhouse condition at 750 g /ha measured after 24 days by spray method; format: functional; conditions: 576 h, read-out: GI
[13] = system: Brassica rapa subsp. oleifera; assay: Pre-emergence herbicidal activity against Brassica rapa subsp. oleifera under greenhouse condition at 750 g /ha measured after 24 days by spray method; format: functional; conditions: 576 h, read-out: GI
Spirodela polyrhiza [14] = assay: Bleaching herbicidal activity in Spirodela polyrhiza fronds cultured in compound-containing in medium assessed as chlorophyll inhibition at 1 ug/ml after 7 days; format: functional; conditions: 168 h
Spirodela polyrhiza [15] = assay: Bleaching herbicidal activity in Spirodela polyrhiza fronds cultured in compound-containing in medium assessed as chlorophyll inhibition at 10 ug/ml after 7 days; format: functional; conditions: 168 h
Amaranthus retroflexus [16] = assay: Post-emergence herbicidal activity against one-leaf stage Amaranthus retroflexus under greenhouse condition assessed as complete bleaching of leaves at 150 g /ha measured after 24 days by spray method; format: functional, organism-based
Amaranthus retroflexus [17] = assay: Post-emergence herbicidal activity against one-leaf stage Amaranthus retroflexus under greenhouse condition assessed as complete bleaching of leaves at 300 g /ha measured after 24 days by spray method; format: functional, organism-based
Amaranthus retroflexus [18] = assay: Post-emergence herbicidal activity against one-leaf stage Amaranthus retroflexus under greenhouse condition assessed as complete bleaching of leaves at 600 g /ha measured after 24 days by spray method; format: functional, organism-based
[19] = system: Brassica rapa subsp. oleifera; assay: Post-emergence herbicidal activity against one-leaf stage Brassica rapa subsp. oleifera under greenhouse condition assessed as complete bleaching of leaves at 75 g /ha measured after 24 days by spray method; format: functional, organism-based
[20] = system: Brassica rapa subsp. oleifera; assay: Post-emergence herbicidal activity against one-leaf stage Brassica rapa subsp. oleifera under greenhouse condition assessed as complete bleaching of leaves at 150 g /ha measured after 24 days by spray method; format: functional, organism-based
[21] = system: Brassica rapa subsp. oleifera; assay: Post-emergence herbicidal activity against one-leaf stage Brassica rapa subsp. oleifera under greenhouse condition assessed as complete bleaching of leaves at 300 g /ha measured after 24 days by spray method; format: functional, organism-based
Amaranthus retroflexus [22] = assay: Post-emergence herbicidal activity against one-leaf stage Amaranthus retroflexus under greenhouse condition at 75 g /ha measured after 24 days by spray method; format: functional; conditions: 576 h, read-out: GI
Amaranthus retroflexus [23] = assay: Post-emergence herbicidal activity against one-leaf stage Amaranthus retroflexus under greenhouse condition at 150 g /ha measured after 24 days by spray method; format: functional; conditions: 576 h, read-out: GI
Amaranthus retroflexus [24] = assay: Post-emergence herbicidal activity against one-leaf stage Amaranthus retroflexus under greenhouse condition at 300 g /ha measured after 24 days by spray method; format: functional; conditions: 576 h, read-out: GI
Amaranthus retroflexus [25] = assay: Post-emergence herbicidal activity against one-leaf stage Amaranthus retroflexus under greenhouse condition at 600 g /ha measured after 24 days by spray method; format: functional; conditions: 576 h, read-out: GI
Amaranthus retroflexus [26] = assay: Post-emergence herbicidal activity against one-leaf stage Amaranthus retroflexus under greenhouse condition assessed as complete bleaching of leaves at 75 g /ha measured after 24 days by spray method; format: functional, organism-based

Compound | Activity [1] | inhibition of growth at 75 g/ha [2] [%] | inhibition of growth at 150 g/ha [3] [%] | inhibition of growth at 300 g/ha [4] [%] | inhibition of growth at 600 g/ha [5] [%] | inhibition of growth at 750 g/ha (Digitaria [6]) [%] | inhibition of growth at 750 g/ha (Echinochloa crus-galli [7]) [%] | inhibition of growth at 750 g/ha (Amaranthus retroflexus [8]) [%] | inhibition of growth at 750 g/ha [9] [%] | inhibition of growth at 750 g/ha (Digitaria [10]) [%] | inhibition of growth at 750 g/ha (Echinochloa crus-galli [11]) [%] | inhibition of growth at 750 g/ha (Amaranthus retroflexus [12]) [%] | inhibition of growth at 750 g/ha [13] [%] | inhibition at 1 µg/mL (Spirodela polyrhiza [14]) [%] | inhibition at 10 µg/mL (Spirodela polyrhiza [15]) [%] | Activity (Amaranthus retroflexus [16]) | Activity (Amaranthus retroflexus [17]) | Activity (Amaranthus retroflexus [18]) | Activity [19] | Activity [20] | also measured
Cc1cc(-c2cccc(C(F)(F)F)c2)c(Oc2ccc(Cl)cc2)nn1 | Active | 65 | 71 | 76 | 80 | 79 | 78 | 94 | 98 | 97 | 85 | 100 | 97 | 72 | 99 | Active | Active | Active | Active | Active | Activity [21]: Active; inhibition of growth at 75 g/ha (Amaranthus retroflexus [22]): 45%; inhibition of growth at 150 g/ha (Amaranthus retroflexus [23]): 84%; inhibition of growth at 300 g/ha (Amaranthus retroflexus [24]): 86%; inhibition of growth at 600 g/ha (Amaranthus retroflexus [25]): 90%; Activity (Amaranthus retroflexus [26]): Active
Cc1cc(-c2cccc(C(F)(F)F)c2)c(Oc2cccc(Br)c2)nn1 | Active | 42 | 67 | 76 | 91 | 40 | 40 | 94 | 100 | 33 | 14 | 0 | 0 | 70 | 79 | Active | Active | Active | Active | Active | Activity [21]: Active; inhibition of growth at 75 g/ha (Amaranthus retroflexus [22]): 38%; inhibition of growth at 150 g/ha (Amaranthus retroflexus [23]): 45%; inhibition of growth at 300 g/ha (Amaranthus retroflexus [24]): 70%; inhibition of growth at 600 g/ha (Amaranthus retroflexus [25]): 73%; Activity (Amaranthus retroflexus [26]): Active
O=C(Nc1ccc(F)cc1F)c1cccnc1Oc1cccc(C(F)(F)F)c1 [DIFLUFENICAN] | Active | 44 | 88 | 94 | 98 | 83 | 67 | 100 | 98 | 100 | 94 | 90 | 71 | 90 | 94 | Active | Active | Active | Active | Active | Activity [21]: Active; inhibition of growth at 75 g/ha (Amaranthus retroflexus [22]): 41%; inhibition of growth at 150 g/ha (Amaranthus retroflexus [23]): 70%; inhibition of growth at 300 g/ha (Amaranthus retroflexus [24]): 74%; inhibition of growth at 600 g/ha (Amaranthus retroflexus [25]): 100%; Activity (Amaranthus retroflexus [26]): Active
